According to patent publication US20120142705A1, “ISATIN AND OXINDOLE COMPOUNDS” (priority 2010, published 2012):

Biological target: T1, Recombinant human liver GK1 (GST-GK) (Homo sapiens, UniProt P35557)
T1 construct: made in house; host or cells: E. coli
T1 sequence (P35557 1-466 isoform P35557-2): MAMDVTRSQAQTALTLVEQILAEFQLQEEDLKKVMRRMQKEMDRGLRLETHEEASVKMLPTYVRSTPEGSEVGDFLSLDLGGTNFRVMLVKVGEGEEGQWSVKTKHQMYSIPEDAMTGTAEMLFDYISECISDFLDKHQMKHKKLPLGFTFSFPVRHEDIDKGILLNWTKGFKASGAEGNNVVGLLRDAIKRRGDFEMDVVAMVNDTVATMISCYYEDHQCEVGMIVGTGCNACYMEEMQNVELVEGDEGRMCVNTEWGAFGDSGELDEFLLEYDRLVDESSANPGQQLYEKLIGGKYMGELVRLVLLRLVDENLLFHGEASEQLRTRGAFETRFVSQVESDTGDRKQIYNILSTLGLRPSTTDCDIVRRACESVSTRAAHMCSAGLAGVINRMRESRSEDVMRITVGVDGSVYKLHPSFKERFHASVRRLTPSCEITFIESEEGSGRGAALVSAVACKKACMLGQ
Experiment: In vitro glucokinase activity, G6PDH-coupled spectrophotometric assay
Assay type: biochemical
Conditions: 5 mM D-glucose, 30° C.; for SC1.5 (concentration of activator that produced a 50% increase in the activity of GK): pH 7.1
Outline: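 GST-fused human liver GK1 from E. coli, run at 30° C. in pH 7.1 HEPES with 5 mM glucose, 1 mM ATP and 10% DMSO, coupled via G6PDH to NADH. OD340 rate measured after enzyme start; SC1.5 is the activator concentration raising activity 50% over DMSO control.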

fold induction at 30 µM | SC1.5 (concentration of activator that produced a 50% increase in the activity of GK) | Compound
1.32 |  | CC(C)CC(C(=O)Nc1ccn(C)n1)N1C(=O)C(=O)c2cc(Br)ccc21 (centres unmarked) [Example 70, 2-(5-Bromo-2,3-dioxo-2,3-dihydro-indol-1-yl)-4-methyl-pentanoic acid (1-methyl-1H-pyrazol-3-yl)-amide]
 | 22.77 µM | Cc1ccc2c(c1)C(=O)C(=O)N2C(CC1CCCC1)C(=O)Nc1cnccn1 (centres unmarked) [Example 76, 3-Cyclopentyl-2-(5-methyl-2,3-dioxo-2,3-dihydro-indol-1-yl)-N-pyrazin-2-yl-propionamide]
 | 6.67 µM | Cc1ccc2c(c1)C(=O)C(=O)N2C(CC1CCCC1)C(=O)Nc1ccccn1 (centres unmarked) [Example 77, 3-Cyclopentyl-2-(5-methyl-2,3-dioxo-2,3-dihydro-indol-1-yl)-N-pyridin-2-yl-propionamide]
 | 29.38 µM | Cc1ccc2c(c1)C(=O)C(=O)N2C(CC1CCCC1)C(=O)Nc1ccn(C)n1 (centres unmarked) [Example 78, 3-Cyclopentyl-2-(5-methyl-2,3-dioxo-2,3-dihydro-indol-1-yl)-N-(1-methyl-1H-pyrazol-3-yl)-propionamide]
 | 16.22 µM | Cc1ccc2c(c1)C(=O)C(=O)N2C(CC1CCCC1)C(=O)Nc1nccs1 (centres unmarked) [Example 79, 3-Cyclopentyl-2-(5-methyl-2,3-dioxo-2,3-dihydro-indol-1-yl)-N-thiazol-2-yl-propionamide]
 | 3.83 µM | Cc1ccc2c(c1)CC(=O)N2C(CC1CCCC1)C(=O)Nc1ccccn1 (centres unmarked) [Example 80, 3-Cyclopentyl-2-(5-methyl-2-oxo-2,3-dihydro-indol-1-yl)-N-pyridin-2-yl-propionamide]
 | 11.29 µM | Cc1ccc2c(c1)CC(=O)N2C(CC1CCCC1)C(=O)Nc1ccn(C)n1 (centres unmarked) [Example 81, 3-Cyclopentyl-2-(5-methyl-2-oxo-2,3-dihydro-indol-1-yl)-N-(1-methyl-1H-pyrazol-3-yl)-propionamide]
 | 4.47 µM | Cc1ccc2c(c1)CC(=O)N2C(CC1CCCC1)C(=O)Nc1cnccn1 (centres unmarked) [Example 83, 3-Cyclopentyl-2-(5-methyl-2-oxo-2,3-dihydro-indol-1-yl)-N-pyrazin-2-yl-propionamide]
1.44 |  | Cc1ccc2c(c1)C(=O)C(=O)N2C(CC(C)C)C(=O)Nc1ccn(C)n1 (centres unmarked) [Example 86, 4-Methyl-2-(5-methyl-2,3-dioxo-2,3-dihydro-indol-1-yl)-pentanoic acid (1-methyl-1H-pyrazol-3-yl)-amide]
 | 3.01 µM | O=C1C(=O)N(C(CC2CCCC2)C(=O)Nc2nccs2)c2ccc(Cl)cc21 (centres unmarked) [Example 92, 2-(5-Chloro-2,3-dioxo-2,3-dihydro-indol-1-yl)-3-cyclopentyl-N-thiazol-2-yl-propionamide]
 | 3.36 µM | O=C1C(=O)N(C(CC2CCCC2)C(=O)Nc2ccn(C[C@@H](O)CO)n2)c2ccc(Cl)cc21 (stereo partly drawn) [Example 93, 2-(5-Chloro-2,3-dioxo-2,3-dihydro-indol-1-yl)-3-cyclopentyl-N-[1-((R)-2,3-dihydroxy-propyl)-1H-pyrazol-3-yl]-propionamide]
 | 1.04 µM | O=C1C(=O)N(C(CC2CCCC2)C(=O)Nc2ccccn2)c2ccc(Cl)cc21 (centres unmarked) [Example 94, 2-(5-Chloro-2,3-dioxo-2,3-dihydro-indol-1-yl)-3-cyclopentyl-N-pyridin-2-yl-propionamide]
 | 7.27 µM | Cn1ccc(NC(=O)C(CC2CCCC2)N2C(=O)C(=O)c3cc(Cl)ccc32)n1 (centres unmarked) [Example 95, 2-(5-Chloro-2,3-dioxo-2,3-dihydro-indol-1-yl)-3-cyclopentyl-N-(1-methyl-1H-pyrazol-3-yl)-propionamide]
 | 4.04 µM | O=C1C(=O)N(C(CC2CCCC2)C(=O)Nc2cnccn2)c2ccc(Cl)cc21 (centres unmarked) [Example 96, 2-(5-Chloro-2,3-dioxo-2,3-dihydro-indol-1-yl)-3-cyclopentyl-N-pyrazin-2-yl-propionamide]
 | 1.84 µM | O=C(Nc1cnccn1)C(CC1CCCC1)N1C(=O)Cc2cc(Cl)ccc21 (centres unmarked) [Example 97, 2-(5-Chloro-2-oxo-2,3-dihydro-indol-1-yl)-3-cyclopentyl-N-pyrazin-2-yl-propionamide]
 | 1.22 µM | O=C(Nc1nccs1)C(CC1CCCC1)N1C(=O)Cc2cc(Cl)ccc21 (centres unmarked) [Example 98, 2-(5-Chloro-2-oxo-2,3-dihydro-indol-1-yl)-3-cyclopentyl-N-thiazol-2-yl-propionamide]
 | 3.3 µM | Cn1ccc(NC(=O)C(CC2CCCC2)N2C(=O)Cc3cc(Cl)ccc32)n1 (centres unmarked) [Example 99, 2-(5-Chloro-2-oxo-2,3-dihydro-indol-1-yl)-3-cyclopentyl-N-(1-methyl-1H-pyrazol-3-yl)-propionamide]
 | 0.49 µM | O=C(Nc1ccccn1)C(CC1CCCC1)N1C(=O)Cc2cc(Cl)ccc21 (centres unmarked) [Example 100, 2-(5-Chloro-2-oxo-2,3-dihydro-indol-1-yl)-3-cyclopentyl-N-pyridin-2-yl-propionamide]
1.4 |  | CC(C)CC(C(=O)Nc1nccs1)N1C(=O)C(=O)c2cc(Cl)ccc21 (centres unmarked) [Example 101, 2-(5-Chloro-2,3-dioxo-2,3-dihydro-indol-1-yl)-4-methyl-pentanoic acid thiazol-2-ylamide]

The next lines start with the molecule.

Compound | fold induction at 30 µM | SC1.5 (concentration of activator that produced a 50% increase in the activity of GK)
CC(C)CC(C(=O)Nc1nccs1)N1C(=O)C(=O)c2cc(Br)ccc21 (centres unmarked) [Example 71, 2-(5-Bromo-2,3-dioxo-2,3-dihydro-indol-1-yl)-4-methyl-pentanoic acid thiazol-2-ylamide] | 1.5 | 
CC(C)CC(C(=O)Nc1nccs1)N1C(=O)Cc2cc(Br)ccc21 (centres unmarked) [Example 72, 2-(5-Bromo-2-oxo-2,3-dihydro-indol-1-yl)-4-methyl-pentanoic acid thiazol-2-ylamide] |  | 5.82 µM
CC(C)CC(C(=O)Nc1ccn(C)n1)N1C(=O)Cc2cc(Br)ccc21 (centres unmarked) [Example 73, 2-(5-Bromo-2-oxo-2,3-dihydro-indol-1-yl)-4-methyl-pentanoic acid (1-methyl-1H-pyrazol-3-yl)-amide] |  | 17.96 µM
CC(C)CC(C(=O)Nc1ccccn1)N1C(=O)Cc2cc(Br)ccc21 (centres unmarked) [Example 74, 2-(5-Bromo-2-oxo-2,3-dihydro-indol-1-yl)-4-methyl-pentanoic acid pyridin-2-ylamide] |  | 3.24 µM
CC(C)CC(C(=O)Nc1cnccn1)N1C(=O)Cc2cc(Br)ccc21 (centres unmarked) [Example 75, 2-(5-Bromo-2-oxo-2,3-dihydro-indol-1-yl)-4-methyl-pentanoic acid pyrazin-2-ylamide] |  | 11.4 µM
Cc1ccc2c(c1)CC(=O)N2C(CC1CCCC1)C(=O)Nc1nccs1 (centres unmarked) [Example 82, 3-Cyclopentyl-2-(5-methyl-2-oxo-2,3-dihydro-indol-1-yl)-N-thiazol-2-yl-propionamide] |  | 2.45 µM
Cc1ccc2c(c1)C(=O)C(=O)N2C(CC(C)C)C(=O)Nc1cnccn1 (centres unmarked) [Example 84, 4-Methyl-2-(5-methyl-2,3-dioxo-2,3-dihydro-indol-1-yl)-pentanoic acid pyrazin-2-ylamide] | 1.29 | 
Cc1ccc2c(c1)C(=O)C(=O)N2C(CC(C)C)C(=O)Nc1ccccn1 (centres unmarked) [Example 85, 4-Methyl-2-(5-methyl-2,3-dioxo-2,3-dihydro-indol-1-yl)-pentanoic acid pyridin-2-ylamide] | 1.16 | 
Cc1ccc2c(c1)C(=O)C(=O)N2C(CC(C)C)C(=O)Nc1nccs1 (centres unmarked) [Example 87, 4-Methyl-2-(5-methyl-2,3-dioxo-2,3-dihydro-indol-1-yl)-pentanoic acid thiazol-2-ylamide] | 1.16 | 
Cc1ccc2c(c1)CC(=O)N2C(CC(C)C)C(=O)Nc1nccs1 (centres unmarked) [Example 88, 4-Methyl-2-(5-methyl-2-oxo-2,3-dihydro-indol-1-yl)-pentanoic acid thiazol-2-ylamide] |  | 22.88 µM
Cc1ccc2c(c1)CC(=O)N2C(CC(C)C)C(=O)Nc1ccn(C)n1 (centres unmarked) [Example 89, 4-Methyl-2-(5-methyl-2-oxo-2,3-dihydro-indol-1-yl)-pentanoic acid (1-methyl-1H-pyrazol-3-yl)-amide] | 1.23 | 
Cc1ccc2c(c1)CC(=O)N2C(CC(C)C)C(=O)Nc1ccccn1 (centres unmarked) [Example 90, 4-Methyl-2-(5-methyl-2-oxo-2,3-dihydro-indol-1-yl)-pentanoic acid pyridin-2-ylamide] |  | 12.84 µM
Cc1ccc2c(c1)CC(=O)N2C(CC(C)C)C(=O)Nc1cnccn1 (centres unmarked) [Example 91, 4-Methyl-2-(5-methyl-2-oxo-2,3-dihydro-indol-1-yl)-pentanoic acid pyrazin-2-ylamide] |  | 28.45 µM
